Laboratory results: patent publication US11045509B2, “Tributyrin compositions and methods therefor” (Compound Solutions, Inc., priority 2019, dated 2021)

Key:
Type in all cases: in vivo, human
[1] = tested on: Faecalibacterium; assay: relative abundance of Faecalibacterium in stool before and after 3-week tributyrin study (16S rRNA); conditions: three volunteers, 300 mg tributyrin per day for 3 weeks, stool sample POST vs PRE, FIG. 2
Source text: (§1) The inventors recruited three volunteers who were asked to provide some basic anthropometric characteristics and lifestyle habits. All volunteer subjects (2 female and 1 male) were free of chronic disease and reported not having taken an antibiotic within the past six months. Body mass index (kg/m^2) analysis classified two of the subjects as “overweight” (BMI>25<30), and one as obese (BMI>30). Although activity habits varied, all of the subjects reported weekly participation in light-to-moderate physical activity, and relatively low caffeine intake (<200 mg/day) and alcohol intake (<3 drinks a week). Before the start of the 3-week study, stool samples were collected from each of the 3 volunteers using the commercially available UBiome Explorer kit. The collected stool samples were sent to Ubiome labs (San Francisco, Calif.) where DNA was extracted followed by 16S rRNA gene amplification for bacterial classification. The 3-week study involved each of the volunteers taking 300 milligrams (mg) of tributyrin per day for 3 weeks. Subjects were verbally instructed to maintain usual dietary and physical activity habits throughout the course of the study. At the end of the 3-week period, stool samples were collected following the same protocol, and sent for analysis. […]

[2] = tested on: Bifidobacterium; assay: relative abundance of Bifidobacterium in stool before and after 3-week tributyrin study (16S rRNA); conditions: three volunteers, 300 mg tributyrin per day for 3 weeks, stool sample POST vs PRE, FIG. 1
Source text: as §1

[3] = tested on: Lachnospira; assay: relative abundance of Lachnospira in stool before and after 3-week tributyrin study (16S rRNA); conditions: three volunteers, 300 mg tributyrin per day for 3 weeks, stool sample POST vs PRE, FIG. 3
Source text: as §1

[4] = tested on: Firmicutes to Bacteroidetes (F/B) ratio; assay: collective Firmicutes to Bacteroidetes (F/B) ratio in stool before and after 3-week tributyrin study; conditions: three volunteers, 300 mg tributyrin per day for 3 weeks, stool samples POST vs PRE, FIG. 4
Method: With reference to FIG. 4, the collective ratio of firmicutes to bacteroidetes (F/B ratio) was measured in the stool samples of the three volunteer subjects before and after taking tributyrin daily for three weeks as described in the Examples. The firmicutes and bacteroidetes are each a phylum of bacteria making up the largest portion of the human gut microbiome. In particular the F/B ratio has been reported to be associated with metabolic factors and cardiorespiratory fitness. Durk et al., 2018, Int J Sport Nutr Exerc Metab, 29, 249-253. Accordingly, the inventors contemplate a method of increasing the F/B ratio in the gut of a mammal with the administration of a tributyrin-containing composition to the mammal at a dosage that effectively increases the F/B ratio in the gut of the mammal. […] As such, contemplated compositions are thought to not only selectively improve gut microflora, but also to enhance nutrient uptake. The inventors recruited three volunteers who were asked to provide some basic anthropometric characteristics and lifestyle habits. All volunteer subjects (2 female and 1 male) were free of chronic disease and reported not having taken an antibiotic within the past six months. Body mass index (kg/m^2) analysis classified two of the subjects as “overweight” (BMI>25<30), and one as obese (BMI>30). […]

CCCC(=O)OCC(COC(=O)CCC)OC(=O)CCC [tributyrin]
increase in relative abundance of Faecalibacterium [1]: 29% | increase in relative abundance of Bifidobacterium [2]: 8,841% | increase in relative abundance of Lachnospira [3]: 114% | increase of collective F/B ratio [4]: approximately 50%
